IC50 data for 34 compounds are collected here from patent publication US20190134005A1 (BioMarin Pharmaceutical Inc., priority 2016, published 2019).

Usually IC50 stands for the concentration that inhibits the measured activity by half.

Bounds are passed on as bounds.

The first assay deals with T1, human CGT (Homo sapiens, UniProt Q16880).
T1 sequence (Q16880 21-541): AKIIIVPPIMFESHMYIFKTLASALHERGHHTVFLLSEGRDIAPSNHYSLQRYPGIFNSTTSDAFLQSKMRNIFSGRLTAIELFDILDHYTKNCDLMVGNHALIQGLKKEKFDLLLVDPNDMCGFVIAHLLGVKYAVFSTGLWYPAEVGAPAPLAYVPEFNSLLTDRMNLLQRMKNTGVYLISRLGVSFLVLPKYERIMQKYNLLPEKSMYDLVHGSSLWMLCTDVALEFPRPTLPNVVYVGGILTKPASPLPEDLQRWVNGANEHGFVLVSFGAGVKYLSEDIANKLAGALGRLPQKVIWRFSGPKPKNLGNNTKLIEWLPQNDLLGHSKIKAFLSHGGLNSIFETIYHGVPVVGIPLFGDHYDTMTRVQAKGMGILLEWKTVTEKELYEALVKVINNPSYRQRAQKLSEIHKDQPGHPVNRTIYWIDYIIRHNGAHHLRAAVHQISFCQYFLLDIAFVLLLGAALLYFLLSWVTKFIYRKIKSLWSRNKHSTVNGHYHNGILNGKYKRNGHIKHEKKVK
In words: Assay 1: CGT Enzymatic Assay (RapidFire/MS/MS, 0.01% Tween 80). The format is biochemical. The following applies: Table 1, Compounds of Formula (I) and Formula (II); CGT enzymatic assay, C6-NBD-dihydro-galactosylceramide readout; read-out: IC50.
On to `CC1(C(F)(F)F)N(c2ccc(Cl)cc2)C(=O)N(c2ccc(Cl)cc2)C1(O)c1cc(C#N)cc(C#N)c1` (racemic) [Example 331, 5-((5S)-1,3-bis(4-chlorophenyl)-4-hydroxy-5-methyl-2-oxo-5-(trifluoromethyl)imidazolidin-4-yl)isophthalonitrile and 5-((5R)-1,3-bis(4-chlorophenyl)-4-hydroxy-5-methyl-2-oxo-5-(trifluoromethyl)imidazolidin-4-yl)isophthalonitrile], for which the IC50 is under 1000 nM.

Regarding `N#Cc1cccc(C2(O)N(c3ccc(C(F)(F)F)cc3)C(=O)N(c3ccc(C(F)(F)F)cc3)C23COC3)c1` (stereo not shown) [Compound 303, 3-(8-hydroxy-6-oxo-5,7-bis(4-(trifluoromethyl)phenyl)-2-oxa-5,7-diazaspiro[3.4]octan-8-yl)benzonitrile], the 50% inhibitory concentration (IC50) is under 1000 nM.

Regarding `Cc1ccc(N2C(=O)N(c3ccc(C#N)cc3)C3(COC3)C2(O)c2cccc(C#N)c2)cc1` (stereo not shown) [Compound 278, 3-(5-(4-cyanophenyl)-8-hydroxy-6-oxo-7-(p-tolyl)-2-oxa-5,7-diazaspiro[3.4]octan-8-yl)benzonitrile], the IC50 was under 1000 nM.

In the case of `COC[C@@]1(C)N(c2ccc(Cl)cc2)C(=O)N(c2ccc(Cl)cc2)C1(O)c1cccc(C#N)c1` (single isomer, unassigned) [Compound 297-1], the IC50 is under 1000 nM.

The same assay, now with this note: Table 1, Compounds of Formula (I) and Formula (II); CGT enzymatic assay; read-out: IC50.
Turning to `N#Cc1ccc(N2CC(O)(c3ccccc3)N(c3ccc(C#N)cc3)C2=O)cc1` (stereo not shown) [Compound 111, 4,4′-(4-hydroxy-2-oxo-4-phenylimidazolidine-1,3-diyl)dibenzonitrile], the IC50 was over 50000 nM.

On to `C[C@@]1(c2ccccc2)C(O)N(c2ccc(Cl)cc2)C(=O)N1c1ccc(Cl)cc1` (single isomer, unassigned) [Example 223-2], for which the IC50 was under 1000 nM.

`Cc1cc(C#N)cc(C2(O)CN(c3ccc(Cl)cc3)C(=O)N2c2ccc(Cl)cc2)c1` (stereo not shown) [Compound 102, 3-(1,3-bis(4-chlorophenyl)-4-hydroxy-2-oxoimidazolidin-4-yl)-5-methylbenzonitrile]: the IC50 lay within 1000 to 10000 nM.

In the case of `C[C@H]1N(c2ccc(Br)cc2)C(=O)N(c2ccc(Br)cc2)C1(O)c1cccc(C(F)(F)F)c1` (stereo partly drawn) [Compound 74-2, (5R)-1,3-bis(4-bromophenyl)-4-hydroxy-5-methyl-4-(3-(trifluoromethyl)phenyl)imidazolidin-2-one], the IC50 is under 1000 nM.

As for `CCC1N(c2ccc(Br)cc2)C(=O)N(c2ccc(Br)cc2)C1(O)c1cccc(OC(F)(F)F)c1` (stereo in doubt) [Compound 83-1, (5S)-1,3-bis(4-bromophenyl)-5-ethyl-4-hydroxy-4-(3-(trifluoromethoxy)phenyl)imidazolidin-2-one], the IC50 is under 1000 nM.

For `CCc1c(-c2cccc(C(F)(F)F)c2)n(-c2ccc(Cl)cc2)c(=O)n1-c1ccc(Cl)cc1` [Example 40, 1,3-bis(4-chlorophenyl)-4-ethyl-5-(3-(trifluoromethyl)phenyl)-1,3-dihydro-2H-imidazol-2-one], the IC50 is under 1000 nM.

As to `O=C1N(c2ccc(Br)cc2)C(=O)C(O)(c2cccs2)N1c1ccc(Br)cc1` (stereo not shown) [Example 205, 1,3-bis(4-bromophenyl)-5-hydroxy-5-(thiophen-2-yl)imidazolidine-2,4-dione], the IC50 was in the range of 50000 to 100000 nM.

Turning to `CCCC1N(c2ccc(Cl)cc2)C(=O)N(c2ccc(Cl)cc2)C1(O)c1cccc(CC)c1` (stereo not shown) [Compound 89, 1,3-bis(4-chlorophenyl)-4-(3-ethylphenyl)-4-hydroxy-5-propylimidazolidin-2-one], the IC50 is under 1000 nM.

In the case of `CC1N(c2ccc(C#N)cc2)C(=O)N(c2ccc(C#N)cc2)C1(O)c1cccc(OC(F)(F)F)c1` (stereo not shown) [Example 180, 4,4′-(4-hydroxy-5-methyl-2-oxo-4-(3-(trifluoromethoxy)phenyl)imidazolidine-1,3-diyl)dibenzonitrile], the IC50 was 1000 to 10000 nM.

`O=C1N(c2ccc(Br)cc2)[C@H](c2ccccc2)C(O)(c2ccccc2)N1c1ccc(Br)cc1` (stereo partly drawn) [Compound 86-2, (5R)-1,3-bis(4-bromophenyl)-4-hydroxy-4,5-diphenylimidazolidin-2-one]: the IC50 lay within 1000 to 10000 nM.

Turning to `Cc1cccc(C2(O)C(C)N(c3ccc(Cl)cc3)C(=O)N2c2ccc(Cl)cc2)c1` (stereo not shown) [Example 36], the IC50 was under 1000 nM.

`O=C1N(c2ccc(Cl)c(Cl)c2)CC(O)(c2ccccc2)N1c1ccc(Cl)c(Cl)c1` (stereo not shown) [Example 32, 1,3-bis(3,4-dichlorophenyl)-4-hydroxy-4-phenylimidazolidin-2-one]: the half-inhibitory concentration (IC50) lay in the range of 1000 to 10000 nM.

With `O=C1N(c2ccc(Cl)cc2)CC(O)(c2cc(Cl)cc(Cl)c2)N1c1ccc(Cl)cc1` (stereo not shown) [Compound 85, 1,3-bis(4-chlorophenyl)-4-(3,5-dichlorophenyl)-4-hydroxyimidazolidin-2-one], the IC50 was 1000 to 10000 nM.

In the case of `O=C1N(c2ccc(Br)cc2)C(=O)C(O)(c2ccc(OCC3CCCC3)cc2)N1c1ccc(Br)cc1` (stereo not shown) [Example 183, 1,3-bis(4-bromophenyl)-5-(4-(cyclopentylmethoxy)phenyl)-5-hydroxyimidazolidine-2,4-dione], the half-maximal inhibitory concentration (IC50) is over 50000 nM.

Take `CCCCOc1ccc(C2(O)C(=O)N(c3ccc(Br)cc3)C(=O)N2c2ccc(Br)cc2)cc1` (stereo not shown) [Example 182, 1,3-bis(4-bromophenyl)-5-(4-butoxyphenyl)-5-hydroxyimidazolidine-2,4-dione]: the IC50 was over 50000 nM.

In the case of `N#Cc1cccc(C2(O)[C@H](C3CCC3)N(c3ccc(Cl)cc3)C(=O)N2c2ccc(Cl)cc2)c1` (stereo partly drawn) [Example 194-1, 3-((5S)-1,3-bis(4-chlorophenyl)-5-cyclobutyl-4-hydroxy-2-oxoimidazolidin-4-yl)benzonitrile], the IC50 was under 1000 nM.

Consider `CCc1cccc(C2(O)[C@H](C)N(c3ccc(Br)cc3)C(=O)N2c2ccc(Br)cc2)c1` (stereo partly drawn) [Compound 68-1, (5S)-1,3-bis(4-bromophenyl)-4-(3-ethylphenyl)-4-hydroxy-5-methylimidazolidin-2-one], for which the IC50 is under 1000 nM.

For `C[C@@H]1N(c2ccc(C#N)cc2)C(=O)N(c2ccc(C#N)cc2)C1(O)c1cccc(OC(F)(F)F)c1` (stereo partly drawn) [Example 180-1, 4,4′-((5S)-4-hydroxy-5-methyl-2-oxo-4-(3-(trifluoromethoxy)phenyl)imidazolidine-1,3-diyl)dibenzonitrile], the IC50 was under 1000 nM.

Turning to `CCc1cccc(C2(O)[C@@H](C)N(c3ccc(Br)cc3)C(=O)N2c2ccc(Br)cc2)c1` (stereo partly drawn) [Compound 68-2, (5R)-1,3-bis(4-bromophenyl)-4-(3-ethylphenyl)-4-hydroxy-5-methylimidazolidin-2-one], the IC50 was under 1000 nM.

`O=C1N(c2ccc(Cl)cc2)C2(CC2)C(O)(c2cccc(C(F)(F)F)c2)N1c1ccc(Cl)cc1` (stereo not shown) [Example 225, 4,6-bis(4-chlorophenyl)-7-hydroxy-7-(3-(trifluoromethyl)phenyl)-4,6-diazaspiro[2.4]heptan-5-one]: the IC50 is under 1000 nM.

For the compound `N#Cc1cccc(C2(O)C(C3CCC3)N(c3ccc(Cl)cc3)C(=O)N2c2ccc(Cl)cc2)c1` (stereo not shown) [Example 194, 3-(1,3-bis(4-chlorophenyl)-5-cyclobutyl-4-hydroxy-2-oxoimidazolidin-4-yl)benzonitrile], the IC50 was under 1000 nM.

Regarding `CC[C@]1(C)N(c2ccc(Cl)cc2)C(=O)N(c2ccc(Cl)cc2)C1(O)c1cccc(OC(F)(F)F)c1` (single isomer, unassigned) [Example 163-2], the half-maximal inhibitory concentration (IC50) was under 1000 nM.

`C[C@@]1(c2ccccc2)N(c2ccc(Cl)cc2)C(=O)N(c2ccc(Cl)cc2)[C@@]1(O)c1ccccc1` [Compound 121-2, (4R,5S)-1,3-bis(4-chlorophenyl)-4-hydroxy-5-methyl-4,5-diphenylimidazolidin-2-one]: the IC50 is over 50000 nM.

With `CCC1N(c2ccc(Cl)cc2)C(=O)N(c2ccc(Cl)cc2)C1(O)c1cccc(C#N)c1` (stereo not shown) [Compound 106, 3-(1,3-bis(4-chlorophenyl)-5-ethyl-4-hydroxy-2-oxoimidazolidin-4-yl)benzonitrile], the IC50 is under 1000 nM.

For the compound `O=C1N(c2ccc(Cl)cc2)[C@H](C2CC2)C(O)(c2cccc(OC(F)F)c2)N1c1ccc(Cl)cc1` (stereo partly drawn) [Compound 233-2, (5R)-1,3-bis(4-chlorophenyl)-5-cyclopropyl-4-(3-(difluoromethoxy)phenyl)-4-hydroxyimidazolidin-2-one], the IC50 is under 1000 nM.

With `O=C1N(c2ccc(F)cc2)CC(O)(c2ccccc2)N1c1ccc(F)cc1` (stereo not shown) [Example 11, 1,3-bis(4-fluorophenyl)-4-hydroxy-4-phenylimidazolidin-2-one], the IC50 was over 50000 nM.

Consider `Cc1ccccc1C1(O)CN(c2ccc(Br)cc2)C(=O)N1c1ccc(Br)cc1` (stereo not shown) [Example 14, 1,3-bis(4-bromophenyl)-4-hydroxy-4-(o-tolyl)imidazolidin-2-one], for which the IC50 was over 50000 nM.

Consider `CC[C@H]1N(c2ccc(F)cc2)C(=O)N(c2ccc(F)cc2)C1(O)c1cccc(C(F)(F)F)c1` (single isomer, unassigned) [Compound 139-2], for which the IC50 is under 1000 nM.

As to `CCCc1c(-c2cccc(Cl)c2)n(-c2ccc(Br)cc2)c(=O)n1-c1ccc(Br)cc1` [Compound 250, 1,3-bis(4-bromophenyl)-4-(3-chlorophenyl)-5-propyl-1,3-dihydro-2H-imidazol-2-one], the half-maximal inhibitory concentration (IC50) is under 1000 nM.

Take `Cc1ccc(N2C(=O)N(c3ccc(C)cc3)C(O)(c3cccc(OC(F)(F)F)c3)[C@H]2C(C)C)cc1` (single isomer, unassigned) [Compound 235-2]: the IC50 is under 1000 nM.
